These results are taken from patent US7223749B2, “Bicyclic heterocycles, pharmaceutical compositions containing these compounds, their use and processes for preparing them” (Boehringer Ingelheim International GmbH, priority 2003, dated 2007).

By IC50 is commonly meant the concentration needed to halve the response being measured. Read a high IC50 as weaker potency.

This experiment addresses T1, human EGF-receptor kinase (Homo sapiens, UniProt P00533).
T1 construct: GST; made in house; host or cells: Sf9 insect cells (Baculovirus)
Briefly: Inhibition of human EGF-receptor kinase (cytoplasmatic tyrosine kinase domain, GST fusion protein, pEY substrate, ELISA readout). The format is biochemical. The note with it: cytoplasmatic tyrosine kinase domain (Met 664 to Ala 1186) as GST fusion protein; poly(EY)/bio-pEY substrate; 30 minutes at ambient temperature. As to the method:
The inhibition of human EGF-receptor kinase was determined using the cytoplasmatic tyrosine kinase domain (methionine 664 to alanine 1186, based on the sequence published in Nature 309 (1984), 418). To do this, the protein was expressed in Sf9 insect cells as a GST fusion protein using the Baculovirus expression system.
The enzyme activity was measured in the presence or absence of the test compounds in serial dilutions. The polymer pEY (4:1) produced by SIGMA was used as the substrate. Biotinylated pEY (bio-pEY) was added as the tracer substrate. Every 100 μl of reaction solution contained 10 μl of the inhibitor in 50% DMSO, 20 μl of the substrate solution (200 mM HEPES pH 7.4, 50 mM magnesium acetate, 2.5 mg/ml of poly(EY), 5 μg/ml of bio-pEY) and 20 μl of enzyme preparation. The enzyme reaction was started by the addition of 50 μl of a 100 μM ATP solution in 10 mM magnesium chloride. The dilution of the enzyme preparation was adjusted so that the incorporation of phosphate into the bio-pEY was linear in terms of time and quantity of enzyme. […]
The enzyme assays were carried out at ambient temperature over a period of 30 minutes and were ended by the addition of 50 μl of a stopping solution (250 mM EDTA in 20 mM HEPES pH 7.4). […] The extinction was measured at OD450 nm with an ELISA reader. All data points were measured three times. […]
For orientation: ELISA stands for enzyme-linked immunosorbent assay.

T1 sequence (P00533 688-1210): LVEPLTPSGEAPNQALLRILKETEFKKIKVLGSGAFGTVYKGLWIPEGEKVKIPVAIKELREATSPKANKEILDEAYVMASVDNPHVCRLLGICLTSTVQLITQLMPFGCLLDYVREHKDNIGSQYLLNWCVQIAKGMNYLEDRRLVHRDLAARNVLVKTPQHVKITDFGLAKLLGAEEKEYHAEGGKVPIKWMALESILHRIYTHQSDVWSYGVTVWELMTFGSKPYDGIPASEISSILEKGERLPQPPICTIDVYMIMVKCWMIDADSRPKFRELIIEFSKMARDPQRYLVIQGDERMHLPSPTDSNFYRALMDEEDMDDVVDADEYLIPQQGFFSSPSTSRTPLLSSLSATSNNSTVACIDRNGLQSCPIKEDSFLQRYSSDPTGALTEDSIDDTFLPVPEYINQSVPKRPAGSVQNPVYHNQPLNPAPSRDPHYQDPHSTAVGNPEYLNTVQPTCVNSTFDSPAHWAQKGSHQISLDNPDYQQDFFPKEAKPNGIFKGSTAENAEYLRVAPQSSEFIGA

Regarding `O=C(/C=C/CN1CCCOCC1)Nc1cc2c(Nc3ccc(F)c(Cl)c3)ncnc2cc1O[C@H]1CCOC1` [Example 1, 4-[(3-chloro-4-fluoro-phenyl)amino]-6-{[4-(homomorpholin-4-yl)-1-oxo-2-buten-1-yl]amino}-7-[(S)-(tetrahydrofuran-3-yl)oxy]-quinazoline], the IC50 is 1.5 nM. That is a single-digit nanomolar value.
